Measurements as given in the supplement of paper PMC10627819.

Legend:
S. aureus Newman [1] = assay: fitness (endpoint OD595 vs no drug) (fraction); higher = more growth
How it was run: (§1)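 In 384-well plates at 37 °C, cultures began at OD595 0.01 in 30 µl, with 55 µl used for S. pneumoniae. OD595 readings every 30 min for 14 h were corrected by the first reading. Fitness divides the stationary-phase transition optical density by the robust mean of no-drug control wells. The result is capped at 1.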

S. aureus DSM 20231 [2] = assay: as above
How it was run: as §1

S. pneumoniae D39V [3] = assay: as above
How it was run: as §1

B. subtilis 168 [4] = assay: as above
How it was run: as §1

S. aureus Newman [5] = assay: Bliss interaction score (quartile over a dose matrix) (fitness difference); higher = more antagonism (negative = synergy)
How it was run: (§2)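 At entry into stationary phase, OD595 was recorded and divided by the robust mean of the no-drug wells on that plate, with any value above 1 set to 1. This gives the fitness measure used throughout. Single-drug fitness was inferred from combination data, and the Bliss score, observed minus product-expected fitness, is shown as quartiles across technical, biological and donor/recipient replicates.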

S. aureus DSM 20231 [6] = assay: as above
How it was run: as §2

S. pneumoniae D39V [7] = assay: as above
How it was run: as §2

B. subtilis 168 [8] = assay: as above
How it was run: as §2
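Wherever Bliss interaction score (quartile over a dose matrix) is given: first quartile when negative (synergy) and third quartile when positive (antagonism).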

CCC[C@@H]1C[C@@H](C(=O)N[C@@H]([C@H]2O[C@H](SC)[C@H](O)[C@@H](O)[C@H]2O)[C@H](C)Cl)N(C)C1 [Clindamycin] + COc1ccc(C[C@H](N)C(=O)N[C@H]2[C@@H](O)[C@H](n3cnc4c(N(C)C)ncnc43)O[C@@H]2CO)cc1 [Puromycin]
Conditions	fitness
B. subtilis 168 [4], first compound 0.0625 µg/mL, partner 0.39 µg/mL	0.534
B. subtilis 168 [4], first compound 0.0625 µg/mL, partner 0.78 µg/mL	0.52
B. subtilis 168 [4], first compound 0.0625 µg/mL, partner 1.56 µg/mL	0.564
B. subtilis 168 [4], first compound 0.125 µg/mL, partner 0.39 µg/mL	0.378
B. subtilis 168 [4], first compound 0.125 µg/mL, partner 0.78 µg/mL	0.355
B. subtilis 168 [4], first compound 0.125 µg/mL, partner 1.56 µg/mL	0.366
B. subtilis 168 [4], first compound 0.25 µg/mL, partner 0.39 µg/mL	0.347
B. subtilis 168 [4], first compound 0.25 µg/mL, partner 0.78 µg/mL	0.335
B. subtilis 168 [4], first compound 0.25 µg/mL, partner 1.56 µg/mL	0.344
S. aureus DSM 20231 [2], first compound 0.0625 µg/mL, partner 1.56 µg/mL	0.179
S. aureus DSM 20231 [2], first compound 0.125 µg/mL, partner 0.39 µg/mL	0.0343
S. aureus DSM 20231 [2], first compound 0.125 µg/mL, partner 0.78 µg/mL	0.0367
S. aureus DSM 20231 [2], first compound 0.125 µg/mL, partner 1.56 µg/mL	0.0565
S. aureus Newman [1], first compound 0.0312 µg/mL, partner 0.39 µg/mL	0.741
S. aureus Newman [1], first compound 0.0312 µg/mL, partner 0.78 µg/mL	0.717
S. aureus Newman [1], first compound 0.0312 µg/mL, partner 1.56 µg/mL	0.713
S. aureus Newman [1], first compound 0.0625 µg/mL, partner 0.39 µg/mL	0.395
S. aureus Newman [1], first compound 0.0625 µg/mL, partner 0.78 µg/mL	0.412
S. aureus Newman [1], first compound 0.0625 µg/mL, partner 1.56 µg/mL	0.326
S. aureus Newman [1], first compound 0.125 µg/mL, partner 0.39 µg/mL	0.101
S. aureus Newman [1], first compound 0.125 µg/mL, partner 0.78 µg/mL	0.115
S. aureus Newman [1], first compound 0.125 µg/mL, partner 1.56 µg/mL	0.13
S. pneumoniae D39V [3], first compound 0.0125 µg/mL, partner 1 µg/mL	0.766
S. pneumoniae D39V [3], first compound 0.0125 µg/mL, partner 2 µg/mL	0.712
S. pneumoniae D39V [3], first compound 0.0125 µg/mL, partner 4 µg/mL	0.473
S. pneumoniae D39V [3], first compound 0.025 µg/mL, partner 1 µg/mL	0.533
S. pneumoniae D39V [3], first compound 0.025 µg/mL, partner 2 µg/mL	0.475
S. pneumoniae D39V [3], first compound 0.025 µg/mL, partner 4 µg/mL	0.33
S. pneumoniae D39V [3], first compound 0.05 µg/mL, partner 1 µg/mL	0.261
S. pneumoniae D39V [3], first compound 0.05 µg/mL, partner 2 µg/mL	0.192
S. pneumoniae D39V [3], first compound 0.05 µg/mL, partner 4 µg/mL	0.11

one replicate
Conditions	fitness
B. subtilis 168 [4], first compound 0.0039 µg/mL, partner 0.39 µg/mL	0.956
B. subtilis 168 [4], first compound 0.0039 µg/mL, partner 0.78 µg/mL	0.946
B. subtilis 168 [4], first compound 0.0039 µg/mL, partner 1.56 µg/mL	≥ 1
B. subtilis 168 [4], first compound 0.0078 µg/mL, partner 0.39 µg/mL	0.853
B. subtilis 168 [4], first compound 0.0078 µg/mL, partner 0.78 µg/mL	0.876
B. subtilis 168 [4], first compound 0.0078 µg/mL, partner 1.56 µg/mL	0.92
B. subtilis 168 [4], first compound 0.0156 µg/mL, partner 0.39 µg/mL	0.826
B. subtilis 168 [4], first compound 0.0156 µg/mL, partner 0.78 µg/mL	0.907
B. subtilis 168 [4], first compound 0.0156 µg/mL, partner 1.56 µg/mL	0.894
S. aureus DSM 20231 [2], first compound 0.0312 µg/mL, partner 3.12 µg/mL	0.487
S. aureus DSM 20231 [2], first compound 0.0312 µg/mL, partner 6.24 µg/mL	0.14
S. aureus DSM 20231 [2], first compound 0.0625 µg/mL, partner 3.12 µg/mL	0.212
S. aureus DSM 20231 [2], first compound 0.0625 µg/mL, partner 6.24 µg/mL	0.0867
S. aureus DSM 20231 [2], first compound 0.125 µg/mL, partner 3.12 µg/mL	0.0522
S. aureus DSM 20231 [2], first compound 0.125 µg/mL, partner 6.24 µg/mL	0.0492
S. pneumoniae D39V [3], first compound 0.015 µg/mL, partner 1 µg/mL	0.746
S. pneumoniae D39V [3], first compound 0.015 µg/mL, partner 2 µg/mL	0.84
S. pneumoniae D39V [3], first compound 0.015 µg/mL, partner 4 µg/mL	0.583
S. pneumoniae D39V [3], first compound 0.03 µg/mL, partner 1 µg/mL	0.591
S. pneumoniae D39V [3], first compound 0.03 µg/mL, partner 2 µg/mL	0.625
S. pneumoniae D39V [3], first compound 0.03 µg/mL, partner 4 µg/mL	0.218
S. pneumoniae D39V [3], first compound 0.06 µg/mL, partner 1 µg/mL	0.177
S. pneumoniae D39V [3], first compound 0.06 µg/mL, partner 2 µg/mL	0.102
S. pneumoniae D39V [3], first compound 0.06 µg/mL, partner 4 µg/mL	0.114

Conditions	Bliss interaction score
B. subtilis 168 [8]	0.0463
S. aureus DSM 20231 [6]	-0.0327
S. aureus Newman [5]	-0.0646
S. pneumoniae D39V [7]	-0.123

CCC[C@@H]1C[C@@H](C(=O)N[C@@H]([C@H]2O[C@H](SC)[C@H](O)[C@@H](O)[C@H]2O)[C@H](C)Cl)N(C)C1 [Clindamycin] + COc1cccc2c1C(=O)c1c(O)c3c(c(O)c1C2=O)C[C@@](O)(C(=O)CO)C[C@@H]3O[C@H]1C[C@H](N)[C@H](O)[C@H](C)O1 [Doxorubicin]
fitness
Conditions	partner 0.25 µg/mL	partner 0.5 µg/mL	partner 0.625 µg/mL	partner 1 µg/mL	partner 1.25 µg/mL	partner 2.5 µg/mL
B. subtilis 168 [4], first compound 0.0625 µg/mL	–	–	0.496	–	0.482	0.394
B. subtilis 168 [4], first compound 0.125 µg/mL	–	–	0.363	–	0.408	0.3
B. subtilis 168 [4], first compound 0.25 µg/mL	–	–	0.347	–	0.364	0.214
S. aureus DSM 20231 [2], first compound 0.125 µg/mL	–	–	0.0581	–	0.0433	0.0502
S. aureus Newman [1], first compound 0.0312 µg/mL	–	–	0.641	–	0.684	0.666
S. aureus Newman [1], first compound 0.125 µg/mL	–	–	0.202	–	0.204	0.136
S. pneumoniae D39V [3], first compound 0.0125 µg/mL	0.671	0.697	–	0.759	–	–
S. pneumoniae D39V [3], first compound 0.015 µg/mL	0.751	0.746	–	0.649	–	–
S. pneumoniae D39V [3], first compound 0.025 µg/mL	0.41	0.375	–	0.439	–	–
S. pneumoniae D39V [3], first compound 0.03 µg/mL	0.588	0.576	–	0.495	–	–
S. pneumoniae D39V [3], first compound 0.05 µg/mL	0.115	0.104	–	0.131	–	–
S. pneumoniae D39V [3], first compound 0.06 µg/mL	0.299	0.288	–	0.256	–	–

fitness, B. subtilis 168 [4], one replicate
Conditions	first compound 0.0039 µg/mL	first compound 0.0078 µg/mL	first compound 0.0156 µg/mL
partner 0.625 µg/mL	0.952	0.832	0.818
partner 1.25 µg/mL	≥ 1	0.858	0.793
partner 2.5 µg/mL	≥ 1	0.851	0.852

Conditions	Bliss interaction score
B. subtilis 168 [8]	0.0474
S. aureus DSM 20231 [6]	0.075
S. aureus Newman [5]	0.168
S. pneumoniae D39V [7]	-0.0723
